Values quoted from earlier work in patent US20110171124A1, “In situ methods for monitoring the EMT status of tumor cells in vivo” (OSI Pharmaceuticals, Inc., priority 2009, published 2011).

System: NSCLC
Conditions: phase III, monotherapy, advanced treatment-refractory NSCLC patients

## C#Cc1cccc(Nc2ncnc3cc(OCCOC)c(OCCOC)cc23)c1 [erlotinib, [6,7-bis(2-methoxyethoxy)-4-quinazolin-4-yl]-(3-ethynylphenyl)amine]
  disease progression: delayed disease progression
  survival: significantly prolonged survival
  worsening of lung cancer-related symptoms: delayed worsening of lung cancer-related symptoms
